Experiments:
[1] = biological target: T1, HPK full length, T165E S171E (Homo sapiens, UniProt Q92918, S171E/T165E); test: HPK1-FL HTRF Enzymatic Assay ("HTRF"); format: biochemical; details: ATP 1 mM, read-out: HPK1 Ki (nM) H = HTRF
T1 construct: HPK full length, T165E S171E: 0.125 nM
Method: Example B1: HPK1-FL HTRF Enzymatic Assay (“HTRF”)
HPK-FL enzyme phosphorylates Biotin-SLP-76 substrate in the presence of ATP at 1 mM and varying concentrations of test compound. Product is detected by FRET using Eu-anti-pSLP76 Ab and SA-XL665. Also see www.cisbio.com/HTRF for additional HTRF technology information.
• Echo555 compound dispenser • Agilent Bravo • Perkin Elmer Envision Final Assay Conditions: • HPK full length, T165E S171E: 0.125 nM • Biotin-SLP76: 100 nM • ATP: 1 mM (ATP Km=20 μM) • Eu-anti-pSLP76: 2 nM • SA-XL665: 8.3 nM • Preincubation time: 30 min • Kinase reaction time: 60 min • Temperature: ambient • Total volume: 12 μl • ATP^app Km: 17.7 μM Materials: • Assay plate: White ProxiPlate 384 F (PerkinElmer cat #6008289) • Kinase: HPK full length double mutant • Substrate: Biotin-SLP76 • ATP: 100 mM ATP • BSG: 2% BSG • DMSO: DMSO(Sigma cat #34869-100ML) • Reaction Buffer: H2O/50 mM HEPES, pH 7.5/10 mM MgCl2/2 mM TCEP/0.01% Brij-35/0.01% BSG • Detection mix: Eu-anti-pSLP76/SA-XL665 (Cisbio, #610SAXAC) Assay Procedure Ki Determination:
To a 384 well Proxiplate with 80 nL compound or DMSO spotted on was added 4 μl/well kinase mix. The mixture was preincubated for 30 minutes and then 4 μl/well substrate mix was added. The solution was incubated for 60 min and then 4 μl/well detection mix was added. The solution was incubated for another 60 min. The plates were then loaded onto a Perkin Elmer Envision and the TR-FRET signal was measured at 615 and 665 nm. A ratio of […] was used to calculate the % activity at each concentration of compound.

[2] = system: primary human pan T cells; test: Human T-Cell IL2 Induction Assay; format: cell-based; details: assayed concentration 0.31 μM; anti-CD3/anti-CD28 stimulated primary human pan T cells
Method: Example B3: Human T-Cell IL2 Induction Assay
Anti-CD3 and anti-CD28 activates TCR signaling in primary human pan T cells leading to IL-2 promoter induction. Secreted IL-2 in cell culture supernatant is detected by electrochemiluminescence using a capture antibody against IL-2 and an anti-IL-2 antibody labeled with SULFO-tag.
Incubate primary human pan T cells with varying concentrations of test compounds for 30 minutes in a humidified incubator at 37° C. and 5% CO2. Transfer cells to a plate pre-coated with a fixed concentration of anti-human CD3 (determined separately for each donor lot) and add soluble anti-human CD28 (final concentration=1 μg/ml). Stimulate cells in a humidified incubator at 37° C. and 5% CO2 for 4 hours. Transfer 25 μl of supernatant to a MSD single spot plate pre-coated with an anti-human IL-2 antibody. Incubate MSD plate overnight at 4° C. with gentle shaking. Wash MSD plate 4× with wash buffer. Add SULFO-tagged detection antibody at a 1:50 dilution and incubate at room temperature shaking for 2 hours. Wash MSD plate 4× with wash buffer and add 150 μl 2×MSD read buffer. Read on an MSD instrument. […]
Exemplary compounds of Formula (I) were tested in the human T-cell IL-2 induction assays. The % increase measured for IL-2 in cells treated by the test compounds relative to untreated cells are provided in Table B2 for certain compounds.

T1 sequence (Q92918 whole entry T165E/S171E): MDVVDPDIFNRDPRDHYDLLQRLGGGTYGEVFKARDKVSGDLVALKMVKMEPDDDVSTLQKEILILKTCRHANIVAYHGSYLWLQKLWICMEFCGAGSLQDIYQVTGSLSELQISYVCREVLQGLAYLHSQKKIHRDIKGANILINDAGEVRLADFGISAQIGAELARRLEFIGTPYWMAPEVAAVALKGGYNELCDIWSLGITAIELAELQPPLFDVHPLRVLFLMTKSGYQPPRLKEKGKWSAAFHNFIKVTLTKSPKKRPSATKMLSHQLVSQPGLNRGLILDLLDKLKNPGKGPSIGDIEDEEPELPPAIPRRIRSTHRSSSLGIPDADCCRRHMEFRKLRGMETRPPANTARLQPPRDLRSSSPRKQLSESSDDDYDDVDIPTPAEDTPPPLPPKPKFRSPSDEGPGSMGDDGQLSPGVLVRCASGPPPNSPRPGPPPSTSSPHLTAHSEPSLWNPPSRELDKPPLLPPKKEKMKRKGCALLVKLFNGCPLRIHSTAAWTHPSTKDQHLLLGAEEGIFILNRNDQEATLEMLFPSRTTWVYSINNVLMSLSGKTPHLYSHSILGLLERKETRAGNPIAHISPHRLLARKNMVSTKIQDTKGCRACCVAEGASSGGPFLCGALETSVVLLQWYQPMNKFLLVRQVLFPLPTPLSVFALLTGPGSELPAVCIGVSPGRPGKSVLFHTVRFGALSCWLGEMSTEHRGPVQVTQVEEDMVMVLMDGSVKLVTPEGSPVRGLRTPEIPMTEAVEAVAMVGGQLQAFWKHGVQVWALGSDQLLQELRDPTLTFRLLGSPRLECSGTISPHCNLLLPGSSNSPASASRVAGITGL

Ki [1]: 0.27 nM
SMILES: Cc1c(N)cncc1-c1cc2cc(Nc3cc4n(n3)CC(=O)N(C)CC43CC3)ncc2c(C)n1 [Compound 101, 2′-((6-(5-amino-4-methylpyridin-3-yl)-8-methyl-2,7-naphthyridin-3-yl)amino)-6′-methyl-5′,6′-dihydrospiro[cyclopropane-1,4′-pyrazolo[1,5-d][1,4]diazepin]-7′(8′H)-one]
% IL-2 increase relative to untreated cells [2]: 421%
